This is an account of results in patent US20250296938A1, “Compounds that Interact with the Ras Superfamily for the Treatment of Cancers, Inflammatory Diseases, Rasopathies, and Fibrotic Disease” (SHY Therapeutics, LLC, priority 2018, published 2025).

SMILES strings stand for the structures. Where two headings read alike, the source gives them in different places.

The test system of assay [1] is HRas wild type. In words: Ras GTP binding domain inhibition assay (Cy3-GTP/Cy5-GTP competition). More on the design: species or system human. The settings on record: at 20 μM; for HRAS wild type + SOS: % inh.: with SOS; for HRas wild type % inh.: without SOS. In a few lines: (§1)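 His-tagged Ras proteins were captured on nickel-coated wells in Buffer-I (25 mM Tris-HCl pH 7.4, 27 mM KCl, 137 mM NaCl, 1 mM MgCl2, 1 mM DTT) or Buffer-II (50 mM Tris-HCl pH 7.0). Compounds (20 μM or serial dilution, 1% DMSO) were incubated 3 h at RT, ±Sos(556-1049) in the final hour. Bound Cy3-/Cy5-GTP (100 nM, 45 min) was read after washing.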

Assay [2] concerns the target T1, KRas G12D mutant (Homo sapiens, UniProt P01116, G12D).
T1 construct: fused on or other part: His tag, used for capture on nickel-coated plates
The assay is described as above. The settings on record: at 20 μM. In a few lines:
as §1

Assay [3] deals with Rac-1 (Homo sapiens, UniProt P63000). The description is as above. In a few lines: (§2)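 First, His-tagged protein is coated on nickel wells overnight at 4 °C. Next, compound (20 μM single point or serial dilution) is added for 3 h at room temperature, with or without Sos exchange factor in the last hour. Finally, 100 nM labelled GTP binds for 45 min and retained signal is measured.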

The target in assay [4] is Rho-A (Homo sapiens, UniProt P61586). Described as above. The settings on record: for Rho-A + SOS: % inh. / Rho-A: % inh.: at 20 μM. In a few lines: as §2
The test system of assay [5] is IL-6. In words: Mouse IL6 quantification assay, LPS-stimulated RAW 264.7 macrophages. The settings on record: RAW264.7, 10 μM, LPS (100 ng/ml) added concurrently, 5 hours, RAW 264.7. The class given is cell-based. In a few lines:
(§3)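 RAW 264.7 cells, serum-starved overnight (0.5% FBS), were pretreated with compounds at 30 μM (0.3% DMSO) for 3 h, then stimulated with LPS 100 ng/ml for 16 h at 37 °C; alternatively, 10 μM compound was added together with LPS for 5 h. Secreted TNF-α and IL-6 were quantified in supernatants by sandwich ELISA.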

Assay [6] deals with TNF-α. In words: Mouse TNF alpha quantification assay, LPS-stimulated RAW 264.7 macrophages. The class given is cell-based. The settings on record: RAW264.7, 10 μM, LPS (100 ng/ml) added concurrently, 5 hours, RAW 264.7, read-out: TNFα % Inhibition. In a few lines:
as §3

Where [7] appears, read: with SOS, read-out: KRas G12D mutant + SOS: % inh.
Setting [8] is: without SOS, read-out: KRas G12D mutant: % inh.
Setting [9] is: with SOS, read-out: Rac-1 + SOS: % inh.
Where [10] appears, read: without SOS, read-out: Rac-1: % inh.
Setting [11] is: with SOS, read-out: Rho-A + SOS: % inh.
Setting [12] is: without SOS, read-out: Rho-A: % inh.

On to `Cn1ccc(-c2sc3nc(-c4nccn4C)nc(N[C@@H]4CC[C@H](O)C4)c3c2C2=CC=CCC=C2)n1` (racemic), for which the “HRAS wild type + SOS: % inh.” value in assay [1] was “A (1-25% inhibition)”. Besides, in assay [1], the “HRas wild type % inh.” value is recorded as “C (51-75% inhibition)”. For the same molecule, the inhibition at 20 µM in assay [2] (setting [7]) was 0%; in assay [2] (setting [8]) it was 0%; in assay [3] (setting [9]), 1 to 25%; in assay [3] (setting [10]) it was 1 to 25%; in assay [4] (setting [11]), 1 to 25%; in assay [4] (setting [12]), 26 to 50%.

On to `CO[C@H]1C[C@H](Nc2nc(-c3nccn3C)nc3sc(-c4ccn(C)n4)c(-c4ccccc4)c23)C1` [drawing 771], for which the inhibition at 10 µM in assay [5] and in assay [6] was 76 to 100% each time.

As to `CN(C)CCOCCNc1nc(-c2nccn2C)nc2sc(-c3ccn(C)n3)c(-c3ccccc3)c12` [drawing 772], the figures for the inhibition at 10 µM in assay [5] and in assay [6] were 76 to 100% and 26 to 50%, respectively.

As for `Cn1ccc(-c2sc3nc(-c4nccn4C)nc(N[C@H]4C[C@@H](O)C4)c3c2-c2ccccc2)n1` [drawing 773], the results for the inhibition at 10 µM in assay [5] and in assay [6] were 26 to 50% and 0%, respectively.

`CO[C@H]1C[C@@H](Nc2nc(-c3ncc[nH]3)nc3sc(-c4ccn(C)n4)c(-c4ccccc4)c23)C1` [drawing 775]: the inhibition at 10 µM in assay [5] is 76 to 100%; in assay [6] it was 1 to 25%.

For `CO[C@H]1CC[C@@H](Nc2nc(-c3ncc[nH]3)nc3sc(-c4ccn(C)n4)c(-c4ccccc4)c23)C1` [drawing 776], the inhibition at 10 µM lay in the range of 76 to 100% in assay [5] and 26 to 50% in assay [6].

As for `CO[C@H]1CC[C@@H](Nc2nc(-c3nccn3C)nc3sc(-c4ccn(C(C)C)n4)c(-c4ccccc4)c23)C1` [drawing 777], the inhibition at 10 µM in assay [5] and in assay [6] was 76 to 100% each time.

For the molecule `COc1nc(-c2ccccn2)nc2c(-c3ccccn3)csc12` [drawing 778], the inhibition at 10 µM in assay [5] fell in the range of 51 to 75%; in assay [6] it was 1 to 25%.

In the case of `CO[C@H]1C[C@@H](Nc2nc(-c3nccn3C)nc3sc(-c4ccn(C)n4)c(C)c23)C1` [drawing 779], the inhibition at 10 µM in assay [5] is 76 to 100%; in assay [6], 1 to 25%.

For the molecule `CO[C@H]1CC[C@@H](Nc2nc(-c3nccn3C)nc3sc(-c4ccn(C)n4)c(C)c23)C1` [drawing 780], the results for the inhibition at 10 µM in assay [5] and in assay [6] were 76 to 100% and 1 to 25%, respectively.

As to `Cc1c(-c2ccn(C)n2)sc2nc(-c3nccn3C)nc(NCCCS(C)(=O)=O)c12` [drawing 781], the inhibition at 10 µM in assay [5] and in assay [6] was 1 to 25% in each case.

Take `Cc1c(-c2ccn(C)n2)sc2nc(-c3nccn3C)nc(NCCCC(=O)N(C)C)c12` [drawing 782]: the inhibition at 10 µM in assay [5] and in assay [6] was 1 to 25% each time.

In the case of `Cc1c(-c2ccn(C)n2)sc2nc(-c3nccn3C)nc(NCCOC(=O)N(C)C)c12` [drawing 783], the inhibition at 10 µM fell in the range of 51 to 75% in assay [5] and 26 to 50% in assay [6].

As for `CO[C@H]1CC[C@@H](Nc2nc(-c3nccn3C)nc3sc(-c4ccn(C(C)C)n4)c(C)c23)C1` [drawing 784], the figures for the inhibition at 10 µM in assay [5] and in assay [6] were 51 to 75% and 26 to 50%, respectively.

Take `CO[C@H]1C[C@@H](Nc2nc(-c3nccn3C)nc3sc(C(=O)NC(C)C)c(-c4ccccc4)c23)C1` [drawing 785]: the figures for the inhibition at 10 µM in assay [5] and in assay [6] were 1 to 25% and 0%, respectively.

With `COCCNC(=O)c1sc2nc(-c3nccn3C)nc(N[C@H]3C[C@@H](OC)C3)c2c1-c1ccccc1` [drawing 786], the inhibition at 10 µM in assay [5] is 26 to 50%; in assay [6] it was 0%.

As for `CO[C@H]1C[C@@H](Nc2nc(-c3nccn3C)nc3sc(C(=O)N4CCOCC4)c(-c4ccccc4)c23)C1` [drawing 787], the inhibition at 10 µM in assay [5] and in assay [6] was 1 to 25% each time.

Turning to `COC1CCN(C(=O)c2sc3nc(-c4nccn4C)nc(N[C@H]4C[C@@H](OC)C4)c3c2-c2ccccc2)C1` (stereo partly shown) [drawing 788], the inhibition at 10 µM in assay [5] and in assay [6] was 0% each time.

On to `CO[C@H]1CC[C@@H](Nc2nc(-c3nccn3C)nc3sc(C(=O)NC(C)C)c(-c4ccccc4)c23)C1` [drawing 789], for which the inhibition at 10 µM was 51 to 75% in assay [5] and 1 to 25% in assay [6].

For `COCCNC(=O)c1sc2nc(-c3nccn3C)nc(N[C@@H]3CC[C@H](OC)C3)c2c1-c1ccccc1` [drawing 790], the inhibition at 10 µM was in the range of 51 to 75% in assay [5] and 1 to 25% in assay [6].

Turning to `CO[C@H]1CC[C@@H](Nc2nc(-c3nccn3C)nc3sc(C(=O)N4CCCC4)c(-c4ccccc4)c23)C1` [drawing 791], the inhibition at 10 µM in assay [5] and in assay [6] was 1 to 25% each time.

Regarding `CO[C@H]1CC[C@@H](Nc2nc(-c3nccn3C)nc3sc(C(=O)N4CCOCC4)c(-c4ccccc4)c23)C1` [drawing 792], the inhibition at 10 µM in assay [5] is 26 to 50%; in assay [6] it was 1 to 25%.

For the molecule `COc1cccc(-c2sc3nc(-c4nccn4C)nc(NC4CCC(OC)C4)c3c2-c2ccccc2)c1F` (stereo not shown) [drawing 1018], in assay [1], the “HRAS wild type + SOS: % inh.” value is “D (76-100% inhibition)”. The “HRas wild type % inh.” value in assay [1] was “D (76-100% inhibition)”. The inhibition at 20 µM in assay [2] (setting [7]) lay within 51 to 75%; in assay [2] (setting [8]), 26 to 50%; in assay [3] (setting [10]), 51 to 75%. Besides, the “Rac-1 + SOS: % inh.” value in assay [3] (at 20 μM, with SOS) is given as “C (51-75% inhibition)”. In addition, the “Rho-A + SOS: % inh.” value in assay [4] (with SOS) is reported as “C (51-75% inhibition)”. For the same molecule, the “Rho-A: % inh.” value in assay [4] (without SOS) is reported as “C (51-75% inhibition)”.

`COc1cccc(-c2sc3nc(-c4nccn4C)nc(NC4CCC(OC)C4)c3c2-c2ccccc2)c1F` (stereo not shown) [drawing 1020]: in assay [1], the “HRAS wild type + SOS: % inh.” value is listed as “D (76-100% inhibition)” and the “HRas wild type % inh.” value was “B (26-50% inhibition)”. For the same molecule, in assay [2] (with SOS), the “KRas G12D mutant + SOS: % inh.” value is on record as “C (51-75% inhibition)”. The “KRas G12D mutant: % inh.” value in assay [2] (without SOS) is listed as “B (26-50% inhibition)”. In addition, in assay [3] (at 20 μM, with SOS), the “Rac-1 + SOS: % inh.” value was “B (26-50% inhibition)”. In addition, the “Rac-1: % inh.” value in assay [3] (at 20 μM, without SOS) was “C (51-75% inhibition)”. Besides, the “Rho-A + SOS: % inh.” value in assay [4] (with SOS) was “A (1-25% inhibition)”. Also, in assay [4] (without SOS), the “Rho-A: % inh.” value was “A (1-25% inhibition)”.

As to `COC1CCC(Nc2nc(-c3nccn3C)nc3sc(-c4cccc5[nH]ncc45)c(-c4ccccc4)c23)C1` (stereo not shown) [drawing 1023], in assay [1], the “HRAS wild type + SOS: % inh.” value is on record as “D (76-100% inhibition)”. In addition, the “HRas wild type % inh.” value in assay [1] is “B (26-50% inhibition)”. Further, the inhibition at 20 µM fell in the range of 26 to 50% in assay [2] (setting [7]); 26 to 50% in assay [2] (setting [8]); 51 to 75% in assay [3] (setting [9]); 51 to 75% in assay [3] (setting [10]); 1 to 25% in assay [4] (setting [11]); 26 to 50% in assay [4] (setting [12]).

For `CO[C@H]1C[C@@H](Nc2nc(-c3ccccn3)nc3sccc23)C1` [drawing 1037], the “HRAS wild type + SOS: % inh.” value in assay [1] is reported as “D (76-100% inhibition)”. Also, in assay [1], the “HRas wild type % inh.” value is listed as “C (51-75% inhibition)”. For the same molecule, the inhibition at 20 µM in assay [2] (setting [7]) was in the range of 51 to 75%; in assay [2] (setting [8]), 51 to 75%; in assay [3] (setting [9]), 76 to 100%; in assay [3] (setting [10]), 76 to 100%; in assay [4] (setting [11]), 51 to 75%; in assay [4] (setting [12]), 76 to 100%.
